Assay type in all cases: cell-based
Assay [1] concerns human bronchiols. The assay can be described thus: Leukotriene D4 induced contraction of human bronchiols, in vitro model (Biological Example 1). Particulars: pre-treatment with compound 10 μM, Leukotriene D4 (10 nM) induced contraction, read-out: Remaining contraction (%). As to the method: (§1) The usefulness of the compounds, as defined in the preceding embodiments, in treating, pretreating, revoking, mitigating, alleviating and/or preventing a condition of the respiratory apparatus characterized by bronchoconstriction, were evaluated in a complex and relevant in vitro model. The in vitro model was in accordance with the in vitro model disclosed in US 2006-0040254 A1 and by Skogvall, S., Berglund, M., Dalence-Guzman, M. F., Svensson, K., Jonsson, P., Persson, C. G. A and Sterner, O., in Pulmonary Pharmacology and Therapeutics, vol 20:3, 2007, p. 273-280. All references disclosed herein are hereby incorporated in their entirety by reference.
(§2) In short, lung tissue was obtained from patients undergoing lobectomia or pulmectomia due to lung carcinoma. From the bronchus of this tissue were rectangular oblong preparations obtained. The contraction induced by inflammatory mediators, such as Leukotriene D4, histamine, prostaglandin D2 or acetylcholine, in the presence and absence of the compound to be evaluated, were compared.
The remaining contraction, after pre-treatment with various compound examples at a concentration of 10 μM, of human bronchiols after Leukotriene D4 (10 nM) induced contraction according to the in vitro method described herein above are tabulated below.

The subject of assay [2] is human bronchiols. The assay can be described thus: Contraction of human bronchiols induced by acetylcholine, carbachol, histamine, methacholine or a mixture (Biological Example 2). As to conditions: compound 10 μM. As for the experimental part:
as §1, §2
(§3) The remaining contraction, after pre-treatment with various compound examples at a concentration of 10 μM, of human bronchiols or rat bronhi after the induction of contraction by treatment with the contractile agents acetylcholine (100 uM), carbachol (10 uM), histamine (100 uM), methacholine (100 uM) or a mixture of acetylcholine (100 uM), leukotriene D4 (LTD4) (0.01 uM) and histamine (100 uM), according to the in vitro method described herein above, are tabulated below: […]

Assay [3] relates to LTB4. Briefly: Human PBMC in vitro model, LTB4 production (ELISA). Particulars: compound 10 μM or dexamethasone 1 μM, 24 h supernatant. As to the method: (§4) Cryopreserved PBMC's (SeraCare, # 72001) were thawed, washed with culture media (RPMI-1640 from Invitrogen, # 61870-036+10% heat inactivated fetal bovine serum from Invitrogen, # 10082-147+100 U/ml penicillin+[…] streptomycin) and tested for viability using Trypan blue (PBMC viability=96%). Cells were then resuspended to 1×10^6 cells/ml in culture media and 0.5 ml was plated into 24 well culture plates (5×10^5 cells/well) before incubation for 30 minutes at 37° C. with 5% CO2 prior to addition of a compound of the present invention (10 μM) or dexamethasone (1 μM). One hour thereafter, LPS (0.1 μg/ml, Salmonella abortus equi, Sigma, # L1887) was added and the cells were incubated for another 24 h before collection of the cell culture supernatants, which were assayed for the presence of MCP-1 and LTB4.
LTB4 levels were quantified by ELISA following the manufacturer's instructions. Absorbance readings were detected using a ThermoMax microplate reader (Molecular Devices). Standard curves were generated using a 4-parameter logistic curve fitting equation (SoftMax Pro 4.7.1; Molecular Devices). Each sample reading was interpolated from the appropriate standard curve. Duplicate interpolated sample values were averaged and standard deviations were calculated. Calculated concentrations were multiplied by the appropriate dilution factor.
(§5) The inhibitory effect of compounds of the present invention, dexamethasone, and vehicle on production of MCP-1 and LTB4 in the PBMC model as described herein above, with (+LPS) or without (−LPS) LPS-induced mediator production, is tabulated below.

The test system of assay [4] is rat bronhi. Briefly: Contraction of rat bronchi induced by acetylcholine, carbachol or methacholine (Biological Example 2). As to conditions: compound 10 μM. As to the method:
as §1, §2, §3

Assay [5] deals with MCP-1. The assay can be described thus: Human PBMC in vitro model, MCP-1 production (Luminex-based assay). As to conditions: compound 10 μM or dexamethasone 1 μM, 24 h supernatant. As for the experimental part:
as §4
MCP-1 levels were quantified employing a Luminex-based assay according the manufacturer's instructions. Data was collected using a Luminex 100 (Luminex Corporation, Austin, Tex.). Standard curves were generated using a 5-parameter logistic curve fitting equation weighted by 1/y (StarStation V 2.0; Applied Cytometry Systems, Sacramento, Calif.). Each sample reading was interpolated from the appropriate standard curve. Calculated concentrations were multiplied by the appropriate dilution factor when necessary.
as §5

[6] abbreviates: Mixture of Acetylcholine (100 uM), LTD4 (0.01 uM) and histamine (100 uM).

Consider eleven compounds from patent US8318768B2, “Bronchodilating alpha, beta-unsaturated isoquinoline amides” (Respiratorius AB, priority 2007, dated 2012).

Consider `Cc1nc(C(F)(F)F)ccc1/C=C/C(=O)N1CCc2c(Cl)c(O)c(O)c(Cl)c2C1` [Example 11, (E)-1-(5,8-dichloro-6,7-dihydroxy-3,4-dihydroisoquinolin-2(1H)-yl)-3-(2-methyl-6-(trifluoromethyl)pyridin-3-yl)prop-2-en-1-one], for which the activity at 10 µM in assay [1] was 9%. Besides, the “REMAINING CONTRACTION (%)” value in assay [2] (setting [6]) was found to be 25%.

`O=C(/C=C/c1ccccc1)N1CCc2c(Cl)c(O)c(O)c(Cl)c2C1` [Example 1, (E)-1-(5,8-dichloro-6,7-dihydroxy-3,4-dihydroisoquinolin-2(1H)-yl)-3-phenylprop-2-en-1-one]: in assay [1], the activity at 10 µM turned out to be 41%.

`Cc1c(O)c(O)c(C)c2c1CCN(C(=O)/C=C/c1ccc(C(F)(F)F)nc1)C2` [Example 9, (E)-6,7-dihydroxy-5,8-dimethyl-1,2,3,4-tetrahydroisoquinoline 3-(6-(trifluoromethyl)pyridin-3-yl)acrylamide]: the activity at 10 µM in assay [1] was 75%.

In the case of `O=C(/C=C/c1ccc(F)cn1)N1CCc2c(Cl)c(O)c(O)c(Cl)c2C1` [Example 3, (E)-1-(5,8-dichloro-6,7-dihydroxy-3,4-dihydroisoquinolin-2-(1H)-yl)-3-(5-fluoropyridin-2-yl)prop-2-en-1-one], the activity at 10 µM in assay [1] is 24%. Further, in assay [2] (setting [6]), the “REMAINING CONTRACTION (%)” value is 43%.

Take `C/C(=C\C(=O)N1CCc2c(Cl)c(O)c(O)c(Cl)c2C1)c1ccc(C(F)(F)F)nc1` [Example 13]: the activity at 10 µM in assay [1] was 7%. Further, the “Mean LTB-4” value in assay [3] (with LPS 0.1 μg/ml (+LPS)) turned out to be 9.8 pg/mL; in assay [3] (without LPS (−LPS)) it was 4.3 pg/mL. Besides, the “REMAINING CONTRACTION (%)” value in assay [4] (Acetylcholine (100 uM)) was found to be 52%; in assay [2] (Acetylcholine (100 uM)), 7%; in assay [2] (Histamine (100 uM)), 3%; in assay [2] (setting [6]) it was 18%. Also, the “Mean MCP-1” value turned out to be 256.7 pg/mL in assay [5] (with LPS 0.1 μg/ml (+LPS)) and 217.1 pg/mL in assay [5] (without LPS (−LPS)).

Turning to `C[C@@H]1C[C@H]2[C@@H]3CCC4=CC(=O)C=C[C@]4(C)[C@@]3(F)[C@@H](O)C[C@]2(C)[C@@]1(O)C(=O)CO` [Dexamethasone, reference compound], the “Mean LTB-4” value in assay [3] (with LPS 0.1 μg/ml (+LPS)) turned out to be 12.6 pg/mL; in assay [3] (without LPS (−LPS)) it was 2.7 pg/mL. Also, the “Mean MCP-1” value in assay [5] (with LPS 0.1 μg/ml (+LPS)) was 1425.6 pg/mL; in assay [5] (without LPS (−LPS)) it was 0 pg/mL.

As for `O=C(/C=C/c1cccnc1)N1CCc2c(Cl)c(O)c(O)c(Cl)c2C1` [Example 2, (E)-1-(5,8-dichloro-6,7-dihydroxy-3,4-dihydroisoquinolin-2(1H)-yl)-3-(pyridin-3-yl)prop-2-en-1-one], the activity at 10 µM in assay [1] amounted to 44%.

On to `C/C(=C\C(=O)N1CCc2c(Cl)c(O)c(O)c(Cl)c2C1)c1ccc(F)cn1` [Example 8, (E)-1-(5,8-dichloro-6,7-dihydroxy-3,4-dihydroisoquinolin-2(1H)-yl)-3-(5-fluoropyridin-2-yl)but-2-en-1-one], for which the activity at 10 µM in assay [1] is 76%.

With `O=C(/C=C/c1ccc(C(F)(F)F)nc1)N1CCc2c(Cl)c(O)c(O)c(Cl)c2C1` [Example 12, (E)-1-(5,8-dichloro-6,7-dihydroxy-3,4-dihydroisoquinolin-2(1H)-yl)-3-(6-(trifluoromethyl)pyridin-3-yl)prop-2-en-1-one], the activity at 10 µM in assay [1] amounted to 6%. The results for the “Mean LTB-4” value in assay [3] (with LPS 0.1 μg/ml (+LPS)) and in assay [3] (without LPS (−LPS)) were 9.9 pg/mL and 3.9 pg/mL, respectively. Besides, the “REMAINING CONTRACTION (%)” value in assay [4] (Acetylcholine (100 uM)) was 40%; in assay [4] (Carbachol (10 uM)), 27%; in assay [4] (Methacholine (100 uM)), 49%; in assay [2] (Acetylcholine (100 uM)), 4%; in assay [2] (Carbachol (10 uM)) it was 10%; in assay [2] (Histamine (100 uM)), 1%. For the same compound, the “REMAINING CONTRACTION (%)” value in assay [2] (Methacholine (100 uM)) is reported as 7%; in assay [2] (setting [6]), 12%. Further, the “Mean MCP-1” value in assay [5] (with LPS 0.1 μg/ml (+LPS)) amounted to 303.1 pg/mL; in assay [5] (without LPS (−LPS)), 229.7 pg/mL.

Consider `O=C(/C=C\c1ccccc1O)N1CCc2c(Cl)c(O)c(O)c(Cl)c2C1` [Example 7, (Z)-1-(5,8-dichloro-6,7-dihyroxy-3,4-dihydroisoquinolin-2(1H)-yl)-3-(2-hydroxyphenyl)prop-2-en-1-one], for which, in assay [1], the activity at 10 µM worked out at 71%.

In the case of `C/C(=C\C(=O)N1CCc2c(Cl)c(O)c(O)c(Cl)c2C1)c1cnc2ccccc2c1` [Example 5, (E)-1-(5,8-dichloro-6,7-dihydroxy-3,4-dihydroisoquinolin-2(1H)-yl)-3-(quinolin-3-yl)but-2-en-1-one], in assay [1], the activity at 10 µM worked out at 31%.
